Assay results from patent publication US4863906A, “2'-deoxy-5-ethynyluridine-3',5'-diestens for treatment of VZV and CMV infections” (Burroughs Wellcome Co., priority 1985, dated 1989).
Read-outs that look alike come from different tables or passages of the source.

Experiments:
[1] = test system: Herpes simplex type 1 (HSV1); assay: HSV1 assay in Vero cells (similar to HCMV plaque reduction assay); assay type: cell-based; details: read-out: IC50 HSV1
Method: (§1) Human cytomegalovirus (HCMV) was assayed in monolayers of either MRC5 cells (human embryonic lung) or Detroit 532 cells (human foreskin fibroblasts) in multiwell trays. Activity of compounds was determined in the plaque reduction assay, in which a cell monolayer was infected with a suspension of HCMV, and then overlaid with nutrient agarose in the form of a gel to ensure that there was no spread of virus throughout the culture. A range of concentrations of compound of known molarity was incorporated in the nutrient agarose overlay. Plaque numbers at each concentration were expressed as percentages of the control and a dose-response curve was drawn. From this curve the 50% inhibitory concentration (IC50) was estimated.
Herpes simplex type 1 (HSV1) was assayed in Vero cells in a similar method to that described for the HCMV assay.

[2] = test system: Varicella zoster virus (VZV); assay: VZV assay in MRC5 cells (similar to HCMV plaque reduction, without agarose overlay); assay type: cell-based
Method: as §1
Varicella zoster virus (VZV) was assayed in MRC5 cells by a similar method to that for HCMV with the omission of the agarose overlay.

[3] = Cell toxicity: cell growth inhibition assay in Vero cells (MTT uptake); assay type: cell-based; details: monkey, 50% inhibition of cell viability at 96 hours, read-out: CCID50 at 96 hr.
Method: Cell toxicity was assessed in a cell growth inhibition assay. Subconfluent cultures of Vero cells grown on 96-well microtiter dishes were exposed to different dilutions of drug, and cell viability determined daily on replicate cultures using uptake of a tetrazolium dye (MTT). The concentration required for a 50% inhibition of cell viability at 96 hours is termed CCID50.

[4] = test system: Human cytomegalovirus (HCMV); assay: HCMV plaque reduction assay in MRC5 or Detroit 532 cells; assay type: cell-based; details: Human betaherpesvirus 5, MRC5, MRC5 or Detroit 532 cells
Method: as §1

certain DNA viruses = assay: Antiviral activity against certain DNA viruses (general statement); details: DNA viruses other than vaccinia and herpes simplex
vaccinia = details: Walker et al. 1978; UK 1 601 020; cited from earlier work
herpes simplex viruses = details: Walker et al. 1978; UK 1 601 020; cited from earlier work
[5] = Human alphaherpesvirus 1, Vero cells
[6] = Human alphaherpesvirus 3, MRC5, MRC5 cells, read-out: IC50 VZV

Compound | IC50 [1, 5] [µM] | IC50 [2, 6] [µM] | CC50 at 96 h ([3]; vero cells) [µM] | IC50 [4] [µM] | other results
C#Cc1cn([C@H]2C[C@H](OC(C)=O)[C@@H](COC(C)=O)O2)c(=O)[nH]c1=O [Acetyl/Acetyl, 2'-Deoxy-3'-5'-di-O-acetyl-5-ethynyluridine] | > 20 |  |  |  | 
C#Cc1cn([C@H]2C[C@H](OC(=O)c3ccccc3)[C@@H](COC(=O)c3ccccc3)O2)c(=O)[nH]c1=O [Benzoyl/Benzoyl, 2'-Deoxy-3',5'-di-O-benzoyl-5-ethynyluridine] | > 20 | > 20 | > 100 | 4.7 | 
C#Cc1cn([C@H]2C[C@H](OC(=O)C3CC3)[C@@H](COC(=O)C3CC3)O2)c(=O)[nH]c1=O [Cyclopropanoyl/Cyclopropanoyl, 2'-Deoxy-3',5'-di-O-cyclopropanoyl-5-ethynyluridine] | > 20 | 24 | > 100 | 2 | 
C#Cc1cn([C@H]2C[C@H](O)[C@@H](COC(=O)c3ccccc3)O2)c(=O)[nH]c1=O [H/Benzoyl, 5'-O-Benzoyl-2'-deoxy-5-ethynyluridine] | > 20 | 0.7 | 1.3 | 0.3 | 
C#Cc1cn([C@H]2C[C@H](O)[C@@H](COC(=O)C3CC3)O2)c(=O)[nH]c1=O [H/Cyclopropanoyl, 5'-O-Cyclopropanoyl-2'-deoxy-5-ethynyluridine] | > 20 | 6.5 | 15 | 0.9 | 
C#Cc1cn([C@H]2C[C@H](O)[C@@H](CO)O2)c(=O)[nH]c1=O [H/H, 2'-Deoxy-5-ethynyluridine] |  |  |  |  | IC50 ([2]; Human alphaherpesvirus 3, MRC5, read-out: IC50 VZV): 0.06 to 0.3 µM; CC50 at 96 h [3]: 0.3 to 3 µM; Activity against certain DNA viruses (certain DNA viruses): very potent activity; Activity against vaccinia (vaccinia): only moderate activity; IC50 ([1]; Human alphaherpesvirus 1, Vero): 4.5 µM; Activity against herpes simplex viruses (herpes simplex viruses): only moderate activity
C#Cc1cn([C@H]2C[C@H](O)[C@@H](COC(=O)CCCCCCC)O2)c(=O)[nH]c1=O [H/Octanoyl, 2'-Deoxy-5-ethynyl-5'-O-octanoyluridine] |  | < 0.2 | 1.8 | 2.2 | 
C#Cc1cn([C@H]2C[C@H](O)[C@@H](COC(=O)C(C)(C)C)O2)c(=O)[nH]c1=O [H/Pivaloyl, 2'-Deoxy-5-ethynyl-5'-O-pivaloyluridine] | > 20 | 0.6 | 10.2 | 0.4 | 
C#Cc1cn([C@H]2C[C@H](O)[C@@H](COC(=O)c3cccc(Cl)c3)O2)c(=O)[nH]c1=O [H/m-Cl Benzoyl] |  | < 0.2 | 19 | 0.46 | 
C#Cc1cn([C@H]2C[C@H](O)[C@@H](COC(=O)c3ccc(OC)cc3)O2)c(=O)[nH]c1=O [H/p-Anisoyl, 5'-O-p-Anisoyl-2'-Deoxy-5-ethynyluridine] | > 20 | > 20 | 3 | 2.8 to 3.7 | 
C#Cc1cn([C@H]2C[C@H](O)[C@@H](COC(=O)c3ccc(C)cc3)O2)c(=O)[nH]c1=O [H/p-Toluoyl, 2'-Deoxy-5-ethynyl-5'-O-toluoyluridine] | > 20 | > 20 | 0.8 | 3.4 | 
C#Cc1cn([C@H]2C[C@H](O)[C@@H](COS(=O)(=O)c3ccc(C)cc3)O2)c(=O)[nH]c1=O [H/p-Tosyl] |  |  |  | 5.6 | 
C#Cc1cn([C@H]2C[C@H](OS(C)(=O)=O)[C@@H](COS(C)(=O)=O)O2)c(=O)[nH]c1=O [Methanesulphonyl/Methanesulphonyl, 2'-Deoxy-3'-5'-di-O-methanesulphonyl-5-ethynyluridine] | > 20 | 16 |  | > 50 | 
C#Cc1cn([C@H]2C[C@H](OC(=O)C(C)(C)C)[C@@H](COC(=O)C(C)(C)C)O2)c(=O)[nH]c1=O [Pivaloyl/Pivaloyl, 2'-Deoxy-5-ethynyl-3',5'-di-O-pivaloyl uridine] | > 20 | 5.5 | > 100 | 2 | 
C#Cc1cn([C@H]2C[C@H](OC(=O)c3cccc(Cl)c3)[C@@H](COC(=O)c3cccc(Cl)c3)O2)c(=O)[nH]c1=O [m-Cl Benzoyl/m-Cl Benzoyl] |  | 1.1 | > 100 | 2.7 | 
C#Cc1cn([C@H]2C[C@H](OC(=O)c3ccc(OC)cc3)[C@@H](COC(=O)c3ccc(OC)cc3)O2)c(=O)[nH]c1=O [p-Anisoyl/p-Anisoyl, 2'-Deoxy-3',5'-di-O-p-anisoyl-5-ethynyluridine] | > 20 | > 20 | > 100 | 20.7 | 
C#Cc1cn([C@H]2C[C@H](OC(=O)c3ccc(C)cc3)[C@@H](COC(=O)c3ccc(C)cc3)O2)c(=O)[nH]c1=O [p-Toluoyl/p-Toluoyl, 2'-Deoxy-3',5'-di-O-p-toluoyl-5-ethynyluridine] | > 20 | > 20 | > 100 |  | 
